From ChEMBL document CHEMBL1201862, “PubChem BioAssay data set” (2004) come the findings set out here.

Structures are written as SMILES.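 Each compound was tested at five concentrations against cells in 96-well plates for 48 hours. Here, GI50 denotes the concentration required for 50% inhibition of growth.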 Activity calls are given as the source filed them. Cut-off read from the data, not from the text of the source: active = GI50 up to about 1.1 µM and inactive = higher.

Some test systems named below: NCI-H23; HOP-62; LOX IMVI; OVCAR-3; NCI-H460; SNB-19; U-251; CAKI-1; SN12C; SW-620; SR; M14; DU-145; HOP-92; SF-295; NCI-H522; HL-60; EKVX; MDA-N; UACC-257.
Holding throughout (assay): NCI-60 cell line screen, 48 h

Consider `O=C1C(O)=C(C(CCc2ccccc2)C2=C(O)C(=O)c3ccccc3C2=O)C(=O)c2ccccc21`, for which the GI50 in the assay with NCI-H23 was 3.65 µM (inactive); in the assay on HOP-62, 28.8 µM (inactive); in the assay on LOX IMVI, 5.26 µM (inactive); in the assay with OVCAR-3 it was 30.7 µM (inactive); in the assay with NCI-H460 it was 3.61 µM (inactive); in the assay with SNB-19, > 100 µM (inactive). Besides, the GI50 is 45.6 µM (inactive) with U-251; > 100 µM (inactive) in the assay with CAKI-1; 56 µM (inactive) in the assay with SN12C; 47.5 µM (inactive) with SW-620; 16.9 µM (inactive) with SR; 11.5 µM (inactive) in the assay with M14. In addition, the GI50 in the assay on DU-145 was 8.55 µM (inactive); in the assay with HOP-92, 40 µM (inactive); in the assay with SF-295, 6.11 µM (inactive); in the assay with NCI-H522, 23.8 µM (inactive); in the assay with HL-60, 1.1 µM (active); in the assay with EKVX it was 61.1 µM (inactive). Moreover, the GI50 in the assay on MDA-N was 16.2 µM (inactive); in the assay on UACC-257, 13.4 µM (inactive).

Consider `CC(=O)N[C@@H](Cc1ccc(O)cn1)C(=O)NCc1ccc2c(c1)OCO2`, for which the GI50 in the assay with NCI-H23, in the assay with HOP-62, in the assay with LOX IMVI, in the assay with OVCAR-3, in the assay with NCI-H460 and with SNB-19 was > 100 µM (inactive) in each case. In addition, the GI50 in the assay with U-251, in the assay on CAKI-1, in the assay with SN12C, in the assay on SW-620, in the assay on SR and in the assay with M14 was > 100 µM (inactive) in each case. Further, the GI50 with DU-145, in the assay on HOP-92, in the assay with SF-295, with NCI-H522, in the assay with HL-60 and with EKVX was > 100 µM (inactive) throughout. The GI50 in the assay on MDA-N and with UACC-257 was > 100 µM (inactive) in each case.

Consider `COc1ccc2cc(NC(=O)N/N=C\c3ccc([N+](=O)[O-])cc3)ccc2c1`, for which the GI50 in the assay on NCI-H23 was 22.9 µM (inactive); with HOP-62, 19.5 µM (inactive); with LOX IMVI it was > 100 µM (inactive); with OVCAR-3, 40.5 µM (inactive); with NCI-H460, 29.4 µM (inactive); in the assay with SNB-19, 20.4 µM (inactive). The GI50 was 29.9 µM (inactive) in the assay with U-251; 43.6 µM (inactive) in the assay with CAKI-1; 86.3 µM (inactive) in the assay on SN12C; > 100 µM (inactive) with SW-620; > 100 µM (inactive) with SR; 30.8 µM (inactive) in the assay on M14. The GI50 was > 100 µM (inactive) in the assay with DU-145; 39.5 µM (inactive) in the assay on HOP-92; 25.9 µM (inactive) in the assay on SF-295; 16 µM (inactive) in the assay on NCI-H522; 45 µM (inactive) in the assay on HL-60; 81.8 µM (inactive) in the assay with EKVX. The GI50 in the assay on MDA-N was 79.3 µM (inactive); with UACC-257 it was 42.2 µM (inactive).

For the molecule `CCC(CCC(C)C1CCC2C3CC=C4CC(OC5OC(CO)C(O)C(O)C5O)CCC4(C)C3CCC12C)C(C)C` (centres undefined), the GI50 in the assay with NCI-H23, in the assay with HOP-62, in the assay on LOX IMVI, in the assay on OVCAR-3, in the assay with NCI-H460 and in the assay with SNB-19 was > 100 µM (inactive) in each case. Moreover, the GI50 with U-251 was > 100 µM (inactive); with CAKI-1, > 100 µM (inactive); with SN12C it was > 100 µM (inactive); with SW-620, > 100 µM (inactive); in the assay on SR, 26.4 µM (inactive); in the assay with M14, > 100 µM (inactive). Further, the GI50 is > 100 µM (inactive) in the assay with DU-145; > 100 µM (inactive) in the assay on HOP-92; 98.9 µM (inactive) in the assay with SF-295; > 100 µM (inactive) with NCI-H522; > 100 µM (inactive) with HL-60; > 100 µM (inactive) in the assay on EKVX. In addition, the GI50 with MDA-N and in the assay on UACC-257 was > 100 µM (inactive) in each case.

As to `CCc1nc(N)nc(N)c1-c1ccc2c(c1)nnn2CCc1ccccc1`, the GI50 is 12.6 µM (inactive) with NCI-H23; 22.2 µM (inactive) in the assay with HOP-62; 5.16 µM (inactive) in the assay on LOX IMVI; 16.6 µM (inactive) in the assay with OVCAR-3; 2.32 µM (inactive) in the assay with NCI-H460; 23.9 µM (inactive) in the assay with SNB-19. Also, the GI50 is 7.69 µM (inactive) in the assay on U-251; 11.2 µM (inactive) in the assay with CAKI-1; 22.5 µM (inactive) in the assay with SN12C; 4.92 µM (inactive) in the assay on SW-620; 5.18 µM (inactive) in the assay on SR; 4.66 µM (inactive) with M14. Moreover, the GI50 with DU-145 was 23.9 µM (inactive); in the assay on HOP-92 it was 38.4 µM (inactive); with SF-295 it was 8.3 µM (inactive); in the assay with NCI-H522 it was 5.98 µM (inactive); in the assay on HL-60, 3.02 µM (inactive); in the assay on EKVX it was 21.8 µM (inactive). Further, the GI50 was 6.1 µM (inactive) in the assay on MDA-N and 22.2 µM (inactive) in the assay with UACC-257.

`O=c1ccs[nH]1`: the GI50 in the assay with NCI-H23 is 3.8 µM (inactive); with HOP-62, 17 µM (inactive); in the assay on LOX IMVI, 7.26 µM (inactive); in the assay with OVCAR-3, 8.17 µM (inactive); in the assay with NCI-H460 it was 9.08 µM (inactive); with SNB-19, 32.1 µM (inactive). Moreover, the GI50 was 7.21 µM (inactive) in the assay with U-251; 9.46 µM (inactive) with CAKI-1; 11.1 µM (inactive) in the assay with SN12C; 4.06 µM (inactive) in the assay on SW-620; 2.54 µM (inactive) in the assay on SR; 9.89 µM (inactive) in the assay with M14. In addition, the GI50 with DU-145 was 40.5 µM (inactive); with HOP-92, 16.7 µM (inactive); in the assay with SF-295 it was 6.17 µM (inactive); in the assay with NCI-H522, 0.42 µM (active); in the assay on HL-60, 3.13 µM (inactive); in the assay with EKVX it was 3.37 µM (inactive). Further, the GI50 with MDA-N was 17.5 µM (inactive); in the assay with UACC-257, 8.91 µM (inactive).

`CCOC(=O)NC(=O)c1cn(CCCOC(=O)CCCCCCCCC(=O)OCCCn2cc(C(=O)NC(=O)OCC)c(=O)n(C)c2=O)c(=O)n(C)c1=O`: the GI50 with NCI-H23 was > 100 µM (inactive); with HOP-62, > 70.6 µM (inactive); in the assay on LOX IMVI it was > 100 µM (inactive); in the assay with OVCAR-3, > 100 µM (inactive); with NCI-H460 it was > 100 µM (inactive); in the assay with SNB-19, 67 µM (inactive). Moreover, the GI50 with U-251 is > 100 µM (inactive); in the assay with CAKI-1 it was > 69 µM (inactive); in the assay with SN12C, > 100 µM (inactive); in the assay with SW-620, > 92 µM (inactive); with SR, > 100 µM (inactive); with M14, > 100 µM (inactive). In addition, the GI50 in the assay with DU-145 was > 100 µM (inactive); in the assay with HOP-92 it was > 59 µM (inactive); in the assay on SF-295, > 100 µM (inactive); in the assay on NCI-H522, > 100 µM (inactive); with HL-60, > 77.8 µM (inactive); with EKVX, > 100 µM (inactive). Further, the GI50 with MDA-N and in the assay with UACC-257 was > 100 µM (inactive) each time.

On to `Nc1nc(-c2cccnc2)cc(-c2cc(-c3cccnc3)nc(N)n2)n1`, for which the GI50 in the assay on NCI-H23, in the assay with HOP-62, with LOX IMVI, in the assay on OVCAR-3, with NCI-H460 and in the assay on SNB-19 was > 100 µM (inactive) each time. The GI50 was > 100 µM (inactive) with U-251; > 100 µM (inactive) in the assay on CAKI-1; > 100 µM (inactive) in the assay with SN12C; > 100 µM (inactive) in the assay with SW-620; 55.8 µM (inactive) in the assay with SR; > 100 µM (inactive) in the assay with M14. Moreover, the GI50 in the assay on DU-145, in the assay on HOP-92, in the assay with SF-295, with NCI-H522, in the assay on HL-60 and with EKVX was > 100 µM (inactive) in each case. Moreover, the GI50 in the assay on MDA-N is 58.7 µM (inactive); with UACC-257 it was > 100 µM (inactive).

With `NC(=O)c1cc2cc(Cl)cc(Cl)c2o/c1=N\c1ccc(F)cc1`, the GI50 in the assay with NCI-H23 was 14.7 µM (inactive); in the assay with HOP-62 it was 27.6 µM (inactive); in the assay with LOX IMVI, 27.6 µM (inactive); in the assay on OVCAR-3, 21.2 µM (inactive); in the assay with NCI-H460 it was 17.1 µM (inactive); in the assay with SNB-19, 16.9 µM (inactive). In addition, the GI50 is 19.6 µM (inactive) in the assay with U-251; 18.1 µM (inactive) with CAKI-1; 16.7 µM (inactive) with SN12C; 30.3 µM (inactive) with SW-620; 4.08 µM (inactive) in the assay with SR; 20.3 µM (inactive) with M14. Further, the GI50 in the assay with DU-145 is 19 µM (inactive); with HOP-92, 31.9 µM (inactive); in the assay on SF-295, 18.5 µM (inactive); in the assay with NCI-H522 it was 17.7 µM (inactive); in the assay with HL-60 it was 64.1 µM (inactive); in the assay with EKVX, 15.2 µM (inactive). The GI50 in the assay with MDA-N is 22.4 µM (inactive); in the assay with UACC-257, 19.5 µM (inactive).

As for `O=[N+]([O-])c1ccc(-c2nn3c(C45CC6CC(CC(C6)C4)C5)nnc3s2)c(Cl)c1`, the GI50 with NCI-H23, in the assay on HOP-62, in the assay on LOX IMVI, with OVCAR-3, in the assay on NCI-H460 and with SNB-19 was > 100 µM (inactive) throughout. Also, the GI50 with U-251, with CAKI-1, with SN12C, with SW-620, with SR and in the assay with M14 was > 100 µM (inactive) throughout. Moreover, the GI50 with DU-145, with HOP-92, in the assay on SF-295, in the assay on NCI-H522, in the assay on HL-60 and in the assay on EKVX was > 100 µM (inactive) throughout. Also, the GI50 with MDA-N was > 100 µM (inactive).
